Test results from ChEMBL document CHEMBL1201862, “PubChem BioAssay data set” (2004).
Calls of active or inactive are those of the source.

What was measured:
[1] = antiviral protection against BTV-induced cell death – arbovirus, BSR cells, confirmation (AID 1250); type: functional;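 note: protection from viral cytopathic effect measured as cell viability by ATP luminescence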
[2] = biological target: Aspartyl aminopeptidase (Plasmodium falciparum 3D7, UniProt Q8I2J3); assay: Counterscreen for inhibitors of M1 and M17 aminopeptidases: QFRET-based biochemical high throughput dose response assay for inhibitors of the Plasmodium falciparum M18 Aspartyl Aminopeptidase (PFM18AAP). [Related PubChem assays: 1619 (Screening assay (M17LAP inhibitors).), 1445 (Screening assay (M1AAP inhibitors).)]
Chain of Aspartyl aminopeptidase (Q8I2J3 whole entry): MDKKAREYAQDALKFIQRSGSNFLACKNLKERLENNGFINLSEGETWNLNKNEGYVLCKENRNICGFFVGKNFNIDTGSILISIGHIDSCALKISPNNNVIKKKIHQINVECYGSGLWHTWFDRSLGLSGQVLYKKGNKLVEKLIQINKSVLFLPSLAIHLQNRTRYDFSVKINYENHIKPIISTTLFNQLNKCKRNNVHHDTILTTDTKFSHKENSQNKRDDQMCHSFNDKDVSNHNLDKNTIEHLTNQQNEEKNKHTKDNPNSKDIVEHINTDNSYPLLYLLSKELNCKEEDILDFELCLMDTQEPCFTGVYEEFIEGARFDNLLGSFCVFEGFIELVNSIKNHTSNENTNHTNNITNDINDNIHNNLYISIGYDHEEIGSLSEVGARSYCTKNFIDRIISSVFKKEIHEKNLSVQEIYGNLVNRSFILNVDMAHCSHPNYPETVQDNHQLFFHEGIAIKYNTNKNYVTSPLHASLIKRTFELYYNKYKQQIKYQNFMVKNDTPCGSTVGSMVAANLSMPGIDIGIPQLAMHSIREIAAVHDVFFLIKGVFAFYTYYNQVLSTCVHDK

[3] = biological target: Procathepsin L (Homo sapiens, UniProt P07711); assay: CTSL1 protease inhibition – biochemical, QFRET, 1536-well, counter-screen for M1/M17 aminopeptidase inhibitor project, dose response (AID 2214)
Chain of Procathepsin L (P07711 whole entry): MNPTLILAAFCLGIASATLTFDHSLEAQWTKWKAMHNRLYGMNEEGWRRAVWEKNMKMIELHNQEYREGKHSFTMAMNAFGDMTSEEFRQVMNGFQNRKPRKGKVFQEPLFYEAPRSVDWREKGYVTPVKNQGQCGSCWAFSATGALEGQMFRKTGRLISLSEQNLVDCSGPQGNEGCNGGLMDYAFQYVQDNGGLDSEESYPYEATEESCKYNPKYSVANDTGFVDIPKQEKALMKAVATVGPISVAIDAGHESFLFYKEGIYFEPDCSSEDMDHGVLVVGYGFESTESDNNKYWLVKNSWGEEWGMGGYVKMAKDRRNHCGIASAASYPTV

[4] = biological target: T1, Leucine aminopeptidase (Plasmodium falciparum 3D7, UniProt Q8IL11); assay: P. falciparum M17LAP inhibitors, primary screen, biochemical, fluorogenic H-Leu-NHMec substrate, 1536-well (AID 1619); type: functional
T1 sequence (Q8IL11 whole entry): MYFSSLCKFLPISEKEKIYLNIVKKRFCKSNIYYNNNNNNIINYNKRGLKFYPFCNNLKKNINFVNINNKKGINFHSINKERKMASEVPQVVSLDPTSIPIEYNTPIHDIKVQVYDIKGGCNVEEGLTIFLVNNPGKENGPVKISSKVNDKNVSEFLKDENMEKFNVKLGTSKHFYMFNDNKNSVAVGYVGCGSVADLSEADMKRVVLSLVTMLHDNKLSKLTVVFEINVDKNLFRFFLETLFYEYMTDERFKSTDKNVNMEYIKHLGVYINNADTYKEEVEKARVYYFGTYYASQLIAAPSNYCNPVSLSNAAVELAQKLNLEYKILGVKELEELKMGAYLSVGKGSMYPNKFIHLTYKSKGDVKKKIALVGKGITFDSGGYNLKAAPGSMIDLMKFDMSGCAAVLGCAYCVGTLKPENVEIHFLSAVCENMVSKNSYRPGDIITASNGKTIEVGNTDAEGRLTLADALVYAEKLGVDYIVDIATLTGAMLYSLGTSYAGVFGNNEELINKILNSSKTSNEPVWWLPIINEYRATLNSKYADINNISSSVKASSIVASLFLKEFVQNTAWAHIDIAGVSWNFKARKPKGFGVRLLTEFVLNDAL

[5] = viability loss in HEK293T cells – cell-based, cherry-picks, cytotoxicity control for HIV Vif inhibitor project, dose response (AID 652208); type: functional
[6] = viability of uninfected HEp-2 cells – cell-based, HTS, cytotoxicity control for RSV inhibitor project, dose response (AID 2410); type: functional; conditions: human respiratory syncytial virus
[7] = biological target: T2, Endoribonuclease toxin MazF (Escherichia coli K-12, UniProt P0AE70); assay: substrate-only fluorescence increase artefacts – biochemical, single-stranded RNase substrate, counter-screen for MazEF activator project, dose response (AID 588502); type: functional
T2 sequence (P0AE70 whole entry): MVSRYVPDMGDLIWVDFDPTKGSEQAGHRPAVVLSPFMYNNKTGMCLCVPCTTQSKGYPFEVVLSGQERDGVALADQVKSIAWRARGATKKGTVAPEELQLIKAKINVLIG

[8] = biological target: T2, Endoribonuclease toxin MazF; assay: activation of MazEF endoribonuclease cleavage – biochemical, fluorescence, single-stranded RNA substrate, uHTS hits, dose response (AID 588481); type: functional
[9] = biological target: T3, Estrogen receptor (Homo sapiens, UniProt P03372);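 note: potency for inhibiting coactivator peptide recruitment to the receptor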
T3 sequence (P03372 whole entry): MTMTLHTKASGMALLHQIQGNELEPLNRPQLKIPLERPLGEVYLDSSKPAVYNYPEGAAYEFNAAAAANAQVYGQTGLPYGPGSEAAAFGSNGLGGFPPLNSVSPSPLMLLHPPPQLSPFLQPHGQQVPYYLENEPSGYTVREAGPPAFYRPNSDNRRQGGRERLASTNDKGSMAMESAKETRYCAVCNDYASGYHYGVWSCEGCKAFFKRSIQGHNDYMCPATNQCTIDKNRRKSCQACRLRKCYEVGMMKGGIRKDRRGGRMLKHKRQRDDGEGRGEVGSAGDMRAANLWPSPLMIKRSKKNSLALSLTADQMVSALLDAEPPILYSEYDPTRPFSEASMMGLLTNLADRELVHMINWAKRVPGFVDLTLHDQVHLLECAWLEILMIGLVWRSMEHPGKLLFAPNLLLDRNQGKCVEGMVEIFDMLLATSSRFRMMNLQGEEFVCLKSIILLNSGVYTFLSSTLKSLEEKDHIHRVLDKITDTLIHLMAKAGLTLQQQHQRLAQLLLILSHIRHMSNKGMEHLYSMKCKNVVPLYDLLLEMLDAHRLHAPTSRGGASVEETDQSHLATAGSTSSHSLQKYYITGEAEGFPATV

[10] = biological target: Mothers against decapentaplegic homolog 3 (Homo sapiens, UniProt P84022); assay: inhibitors of SMAD-driven TGF-beta signaling – dose response (AID 715); type: functional
[11] = biological target: T4, Mucolipin-3 (Homo sapiens, UniProt Q8TDD5); assay: Fluorescence counterscreen assay for […] agonists: dose response cell-based high-throughput screening assay to identify agonists of the transient receptor potential channel ML3 (TRPML3). [Related pubchem assays: 1424, 1448 ]; type: functional
T4 sequence (Q8TDD5 whole entry): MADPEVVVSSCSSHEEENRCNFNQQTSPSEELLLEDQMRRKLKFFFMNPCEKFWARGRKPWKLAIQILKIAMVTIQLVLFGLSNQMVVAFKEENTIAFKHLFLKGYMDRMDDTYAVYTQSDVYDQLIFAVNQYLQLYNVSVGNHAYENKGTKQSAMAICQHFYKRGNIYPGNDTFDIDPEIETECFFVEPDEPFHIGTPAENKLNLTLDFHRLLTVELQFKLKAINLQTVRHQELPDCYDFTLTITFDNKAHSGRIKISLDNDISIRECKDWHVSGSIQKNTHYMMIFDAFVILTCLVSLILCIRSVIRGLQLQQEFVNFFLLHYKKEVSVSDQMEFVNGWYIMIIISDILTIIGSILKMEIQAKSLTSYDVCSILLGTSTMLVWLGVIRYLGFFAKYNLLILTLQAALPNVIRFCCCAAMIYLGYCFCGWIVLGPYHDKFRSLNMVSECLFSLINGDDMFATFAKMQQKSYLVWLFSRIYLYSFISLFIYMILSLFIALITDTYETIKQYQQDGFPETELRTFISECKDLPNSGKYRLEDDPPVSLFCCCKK

[12] = biological target: Ion channel NompC (Danio rerio, UniProt Q7T1G6); assay: Dose response cell-based high-throughput screening assay for agonists of the transient receptor potential channel N1 (TRPN1). [Related pubchem assays (depositor defined):AID1424, AID1448]; type: functional
Chain of Ion channel NompC (Q7T1G6 whole entry): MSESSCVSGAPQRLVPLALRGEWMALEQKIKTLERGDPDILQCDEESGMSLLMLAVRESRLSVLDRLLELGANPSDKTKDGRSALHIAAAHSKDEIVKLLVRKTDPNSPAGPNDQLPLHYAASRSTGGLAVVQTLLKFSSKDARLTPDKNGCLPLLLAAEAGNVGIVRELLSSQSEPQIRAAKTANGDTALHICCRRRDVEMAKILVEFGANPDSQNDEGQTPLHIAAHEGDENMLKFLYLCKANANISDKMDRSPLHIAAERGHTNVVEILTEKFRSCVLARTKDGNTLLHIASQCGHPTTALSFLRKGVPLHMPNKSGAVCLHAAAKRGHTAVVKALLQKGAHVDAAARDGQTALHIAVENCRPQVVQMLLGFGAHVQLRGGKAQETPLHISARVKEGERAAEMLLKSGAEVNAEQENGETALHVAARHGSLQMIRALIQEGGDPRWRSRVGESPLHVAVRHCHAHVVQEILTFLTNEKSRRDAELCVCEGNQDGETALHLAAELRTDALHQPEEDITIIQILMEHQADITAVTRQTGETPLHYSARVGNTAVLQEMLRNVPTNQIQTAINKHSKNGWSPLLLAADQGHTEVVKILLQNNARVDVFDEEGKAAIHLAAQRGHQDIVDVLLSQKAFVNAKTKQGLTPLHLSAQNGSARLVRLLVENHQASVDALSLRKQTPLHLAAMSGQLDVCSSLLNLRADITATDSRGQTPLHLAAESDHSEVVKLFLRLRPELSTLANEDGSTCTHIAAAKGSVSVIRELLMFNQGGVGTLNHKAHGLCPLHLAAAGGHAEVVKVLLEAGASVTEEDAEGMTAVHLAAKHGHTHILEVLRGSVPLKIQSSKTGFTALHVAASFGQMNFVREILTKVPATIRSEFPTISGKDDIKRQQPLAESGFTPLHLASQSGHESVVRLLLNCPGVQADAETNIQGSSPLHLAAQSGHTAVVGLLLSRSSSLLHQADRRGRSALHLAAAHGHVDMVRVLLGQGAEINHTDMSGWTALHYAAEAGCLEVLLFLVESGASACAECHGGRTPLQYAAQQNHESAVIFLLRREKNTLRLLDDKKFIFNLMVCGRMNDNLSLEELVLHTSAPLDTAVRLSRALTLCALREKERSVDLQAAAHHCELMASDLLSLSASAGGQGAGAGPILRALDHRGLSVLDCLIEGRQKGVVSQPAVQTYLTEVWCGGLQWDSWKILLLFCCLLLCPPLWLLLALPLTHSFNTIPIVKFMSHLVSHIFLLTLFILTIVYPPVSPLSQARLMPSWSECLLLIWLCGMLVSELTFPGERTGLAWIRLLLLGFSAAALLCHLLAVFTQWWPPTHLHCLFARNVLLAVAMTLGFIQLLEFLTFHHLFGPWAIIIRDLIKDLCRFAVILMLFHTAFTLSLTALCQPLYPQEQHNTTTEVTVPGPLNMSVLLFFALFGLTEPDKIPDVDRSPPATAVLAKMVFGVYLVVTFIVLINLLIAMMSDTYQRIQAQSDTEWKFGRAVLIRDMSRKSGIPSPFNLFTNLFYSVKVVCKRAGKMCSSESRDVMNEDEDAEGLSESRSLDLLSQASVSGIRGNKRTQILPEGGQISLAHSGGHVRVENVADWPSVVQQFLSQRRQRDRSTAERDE

[13] = tested on: BJ; assay: growth inhibition of engineered Ras-driven BJ cells – cell-based, alamar blue fluorescence, cherrypicked samples, dose response (AID 2631); type: functional; conditions: Homo sapiens;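 note: confirmatory dose-response assay in RAS-dependent BJ fibroblasts engineered with TERT, LT and ST, with cytotoxicity read by fluorescence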
[14] = HEK-293T viability loss after treatment – luminescence, T-cell screen hits, cytotoxicity control for TCR NF-kB inhibitor project, dose response (AID 489026); type: functional, cell-based;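 note: cells exposed to compound about 14 hours before the viability readout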
[15] = DRD fibroblast viability loss – cell-based, non-viral oncogenic, luminescence, dose response (AID 1934); type: functional; conditions: Homo sapiens
[16] = biological target: Sphingosine 1-phosphate receptor 1 (Homo sapiens, UniProt P21453); type: functional;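 note: Tango beta-arrestin reporter U2OS cells stimulated with S1P near its EC80; inhibitor potency meaning antagonism of receptor activation by the natural agonist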
[17] = biological target: T5, Sphingosine 1-phosphate receptor 4 (Homo sapiens, UniProt O95977); assay: Late stage fluorescence dose response cell-based screening assay for antagonists of the Sphingosine 1-Phosphate Receptor 4 (S1P4). [Related pubchem assays: 1524 (Confirmation screen (S1P4 antagonists).), 1510 (Primary screen (S1P4 antagonists).), 1853 (Summary AID (S1P4 antagonists).), 1692 (Dose response screen (S1P4 antagonists).)]; type: functional
T5 sequence (O95977 whole entry): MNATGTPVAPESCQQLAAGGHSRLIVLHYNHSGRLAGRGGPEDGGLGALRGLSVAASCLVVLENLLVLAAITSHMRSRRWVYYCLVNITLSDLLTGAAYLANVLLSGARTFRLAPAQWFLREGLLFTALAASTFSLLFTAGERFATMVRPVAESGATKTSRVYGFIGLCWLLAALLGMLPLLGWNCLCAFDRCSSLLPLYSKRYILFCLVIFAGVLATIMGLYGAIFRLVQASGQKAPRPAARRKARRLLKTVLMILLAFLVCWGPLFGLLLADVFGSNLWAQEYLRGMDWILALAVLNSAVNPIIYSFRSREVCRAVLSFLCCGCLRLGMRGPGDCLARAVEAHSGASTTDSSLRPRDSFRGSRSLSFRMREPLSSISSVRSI

[18] = tested on: INS1; assay: INS-1E survival protection against cytokine death – cell-based, luminescence, retest, dose response (AID 449756); type: functional; conditions: Rattus norvegicus;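 note: cell death triggered by IL-1 beta plus TNF-alpha plus IFN-gamma mixture; protective hits raise ATP signal compared with cytokine alone wells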
[19] = tested on: BJ; assay: cells; type: functional, cell-based; conditions: Homo sapiens
[20] = tested on: BJ; assay: BJ-TERT-LT-ST fibroblast viability loss – cell-based, RAS-independent, luminescence, dose response (AID 1935); type: functional; conditions: Homo sapiens;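 note: BJ fibroblasts immortalized with TERT plus LT and ST oncogenes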
[21] = tested on: BJ; assay: BJ-TERT fibroblast viability loss – cell-based, RAS-independent, luminescence, dose response (AID 1933); type: functional; conditions: Homo sapiens
[22] = biological target: T5, Sphingosine 1-phosphate receptor 4; assay: Fluorescence dose response cell-based high throughput screening assay for antagonists of the Sphingosine 1-Phosphate Receptor 4 (S1P4). [Related pubchem assays: 1524 (Confirmation in triplicates.), 1510 (Primary screen.)]; type: functional
[23] = biological target: Cytochrome P450 2D6 (Homo sapiens, UniProt P10635);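 note: CYP2D6 member of a cytochrome P450 panel assay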
Chain of Cytochrome P450 2D6 (P10635 whole entry): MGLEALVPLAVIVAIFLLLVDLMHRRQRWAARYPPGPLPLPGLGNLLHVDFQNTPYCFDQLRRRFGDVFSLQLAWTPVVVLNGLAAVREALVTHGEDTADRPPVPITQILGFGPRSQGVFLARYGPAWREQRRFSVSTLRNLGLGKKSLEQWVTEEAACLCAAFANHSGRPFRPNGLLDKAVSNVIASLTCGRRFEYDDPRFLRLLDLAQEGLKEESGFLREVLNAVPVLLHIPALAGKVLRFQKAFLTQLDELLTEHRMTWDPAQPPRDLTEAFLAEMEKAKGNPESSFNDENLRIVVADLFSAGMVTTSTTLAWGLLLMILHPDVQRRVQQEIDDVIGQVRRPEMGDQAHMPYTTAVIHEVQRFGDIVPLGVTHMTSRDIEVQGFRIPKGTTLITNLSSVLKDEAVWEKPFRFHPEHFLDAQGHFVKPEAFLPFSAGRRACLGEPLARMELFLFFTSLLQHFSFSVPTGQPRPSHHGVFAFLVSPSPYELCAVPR

[24] = Luminescence Cell-Based Dose Confirmation HTS to Identify Inhibitors of Polyadenylation.; type: functional
[25] = M. tuberculosis H37Rv growth inhibitors, H37Rv strain (AID 1626); type: functional
[26] = biological target: T6, Mannose-6-phosphate isomerase (Homo sapiens, UniProt P34949); assay: MPI enzyme activity inhibition – biochemical, fluorescence intensity, coupled assay, primary screen (AID 1209)
T6 sequence (P34949 whole entry): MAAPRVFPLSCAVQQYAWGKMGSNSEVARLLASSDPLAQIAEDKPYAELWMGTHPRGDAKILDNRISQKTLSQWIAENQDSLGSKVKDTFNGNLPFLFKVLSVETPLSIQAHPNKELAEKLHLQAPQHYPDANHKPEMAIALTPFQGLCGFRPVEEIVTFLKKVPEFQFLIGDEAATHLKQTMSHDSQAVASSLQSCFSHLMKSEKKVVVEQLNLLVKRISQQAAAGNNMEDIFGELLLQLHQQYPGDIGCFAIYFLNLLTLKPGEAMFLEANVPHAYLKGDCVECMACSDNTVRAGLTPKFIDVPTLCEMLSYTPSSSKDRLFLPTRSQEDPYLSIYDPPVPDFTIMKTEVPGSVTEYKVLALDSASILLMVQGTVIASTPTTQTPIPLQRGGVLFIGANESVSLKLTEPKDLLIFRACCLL

[27] = biological target: T6, Mannose-6-phosphate isomerase; assay: MPI inhibition at elevated mannose 6-phosphate – biochemical, fluorescence intensity, high mannose 6-phosphate, primary screen (AID 1220)
[28] = biological target: Genome polyprotein (dengue virus type 2, UniProt P29990); assay: flavivirus cap methylation enzyme inhibition – biochemical, confirmation dose response, primary screen (AID 588689); type: functional
Chain of Genome polyprotein (P29990 2492-3391 limits assumed): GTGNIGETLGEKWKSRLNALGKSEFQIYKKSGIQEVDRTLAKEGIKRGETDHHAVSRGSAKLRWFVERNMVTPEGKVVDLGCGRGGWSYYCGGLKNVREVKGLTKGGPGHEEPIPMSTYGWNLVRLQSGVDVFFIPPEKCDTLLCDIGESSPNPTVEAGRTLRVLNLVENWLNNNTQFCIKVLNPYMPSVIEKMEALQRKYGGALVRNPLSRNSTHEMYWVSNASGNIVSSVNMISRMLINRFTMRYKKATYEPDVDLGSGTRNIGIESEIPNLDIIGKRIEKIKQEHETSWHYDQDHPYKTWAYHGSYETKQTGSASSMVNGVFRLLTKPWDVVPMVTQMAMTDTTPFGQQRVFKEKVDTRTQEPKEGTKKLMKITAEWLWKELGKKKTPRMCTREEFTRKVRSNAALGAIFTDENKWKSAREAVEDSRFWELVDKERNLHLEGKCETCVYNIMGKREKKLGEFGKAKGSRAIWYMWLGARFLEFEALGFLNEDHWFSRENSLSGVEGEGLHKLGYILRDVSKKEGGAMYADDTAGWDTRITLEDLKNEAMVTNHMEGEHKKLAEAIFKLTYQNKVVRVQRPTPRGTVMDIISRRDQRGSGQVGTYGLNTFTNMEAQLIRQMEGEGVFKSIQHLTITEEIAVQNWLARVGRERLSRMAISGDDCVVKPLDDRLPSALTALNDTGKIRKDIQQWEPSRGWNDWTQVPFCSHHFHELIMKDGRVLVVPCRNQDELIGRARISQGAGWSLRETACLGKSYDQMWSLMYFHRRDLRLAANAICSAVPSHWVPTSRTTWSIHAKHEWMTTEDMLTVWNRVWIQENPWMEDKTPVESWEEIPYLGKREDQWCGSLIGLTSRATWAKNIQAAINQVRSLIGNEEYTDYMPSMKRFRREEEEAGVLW

[29] = biological target: Neuropeptide Y receptor type 1 (Homo sapiens, UniProt P25929); type: functional;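 note: HEK293 cells with a CNG channel challenged with NPY then isoproterenol; potency as antagonist that reverses NPY suppression of cAMP signal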
Chain of Neuropeptide Y receptor type 1 (P25929 whole entry): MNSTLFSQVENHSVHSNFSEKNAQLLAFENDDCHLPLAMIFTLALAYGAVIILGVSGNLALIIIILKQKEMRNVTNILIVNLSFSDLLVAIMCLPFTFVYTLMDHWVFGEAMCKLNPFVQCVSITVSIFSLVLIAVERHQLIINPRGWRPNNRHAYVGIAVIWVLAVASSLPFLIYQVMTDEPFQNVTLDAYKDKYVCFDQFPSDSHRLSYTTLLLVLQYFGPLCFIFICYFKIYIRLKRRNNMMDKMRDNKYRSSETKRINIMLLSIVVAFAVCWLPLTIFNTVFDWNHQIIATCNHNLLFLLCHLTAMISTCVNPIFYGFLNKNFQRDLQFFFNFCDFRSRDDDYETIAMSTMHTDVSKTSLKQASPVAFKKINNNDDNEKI

[30] = biological target: T7, Protein skinhead-1 (Caenorhabditis elegans, UniProt P34707); type: functional
T7 sequence (P34707 whole entry): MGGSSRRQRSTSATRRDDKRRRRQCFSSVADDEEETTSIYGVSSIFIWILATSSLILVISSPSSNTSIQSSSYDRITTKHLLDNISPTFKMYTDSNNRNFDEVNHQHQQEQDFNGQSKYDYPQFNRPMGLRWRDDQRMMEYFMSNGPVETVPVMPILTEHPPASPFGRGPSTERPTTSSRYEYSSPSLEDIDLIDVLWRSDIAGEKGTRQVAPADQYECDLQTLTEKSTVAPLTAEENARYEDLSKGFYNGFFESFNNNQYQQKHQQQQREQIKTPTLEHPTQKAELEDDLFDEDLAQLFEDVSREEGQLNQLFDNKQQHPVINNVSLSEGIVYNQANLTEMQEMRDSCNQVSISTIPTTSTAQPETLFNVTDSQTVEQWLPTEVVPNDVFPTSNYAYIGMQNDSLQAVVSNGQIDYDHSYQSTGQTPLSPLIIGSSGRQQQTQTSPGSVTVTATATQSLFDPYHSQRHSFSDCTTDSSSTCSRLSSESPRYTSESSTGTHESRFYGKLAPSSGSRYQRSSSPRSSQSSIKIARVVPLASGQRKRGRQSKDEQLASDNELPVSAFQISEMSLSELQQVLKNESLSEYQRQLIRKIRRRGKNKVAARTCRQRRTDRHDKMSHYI

[31] = biological target: Neuropeptide Y receptor type 2 (Homo sapiens, UniProt P49146); type: functional, cell-based;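 note: HEK293 cells expressing the receptor and a CNG channel; stimulus was NPY near EC95 followed by isoproterenol to raise cAMP; antagonist potency measured as restoring cAMP signal that NPY suppresses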
Chain of Neuropeptide Y receptor type 2 (P49146 whole entry): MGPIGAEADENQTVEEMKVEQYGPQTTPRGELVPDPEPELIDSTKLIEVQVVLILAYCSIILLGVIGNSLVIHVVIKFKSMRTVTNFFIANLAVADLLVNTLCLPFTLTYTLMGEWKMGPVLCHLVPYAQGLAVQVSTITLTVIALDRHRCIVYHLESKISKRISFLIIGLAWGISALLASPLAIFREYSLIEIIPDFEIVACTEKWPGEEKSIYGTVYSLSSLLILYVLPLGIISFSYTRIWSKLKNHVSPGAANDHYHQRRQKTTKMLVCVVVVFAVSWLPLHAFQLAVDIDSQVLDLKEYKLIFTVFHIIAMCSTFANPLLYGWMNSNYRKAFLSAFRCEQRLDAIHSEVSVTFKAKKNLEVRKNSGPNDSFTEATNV

CC1CCc2c(sc(NC(=O)c3ccccc3C(=O)O)c2C#N)C1 (stereo unspecified)
IC50 [1]: 24 µM (active)

CCOc1ccc(NC(=O)Nc2ccc3nccnc3c2)cc1
IC50 [2]: > 73.5 µM (not active)
IC50 [3]: > 59.6 µM (not active)
IC50 [4]: 5.45 µM (active)

O=C(Nc1ccc2oc(-c3ccc4ccccc4c3)nc2c1)c1cccs1
AC50 [5]: 31 µM (active)
CC50 [6]: 18.6 µM (active)
EC50 [7]: > 99 µM (inactive)
EC50 [8]: > 99 µM (inactive)
IC50 [9]: 27.7 µM (active)

CCCc1cc(=O)[nH]c(N=C(NC(=O)C(C)N2C(=O)c3ccccc3C2=O)Nc2ccccc2)n1 (stereo unspecified)
IC50 [10]: 8.78 µM (active)

C=C1C(=O)C=C2CN(C(=O)c3ccccc3)[C@@](Cc3ccc(F)cc3)(C(=O)OC)[C@@H]12
EC50 [11]: 1.12 µM (active)
EC50 [12]: > 1.11 µM (inactive)
EC50 [13]: < 0.104 µM (active)
IC50 [14]: > 80 µM (inactive)
EC50 [15]: 0.662 µM (active)
IC50 [16]: 12 µM (not active)
IC50 [17]: 3.7 µM (not active)
AC50 [18]: 1.58 µM (active)
EC50 [19]: 8.08 µM (inconclusive)
EC50 [20]: 0.554 µM (inconclusive)
EC50 [21]: 0.333 µM (active)
IC50 [22]: 0.473 µM (active)
AC50 [23]: 39.8 µM (inconclusive)

COc1ccc(-c2cccc(NC(=O)COc3ccc(Cl)cc3)c2)nn1
EC50 [24]: > 120 µM (not active)

Cn1nc(C(F)(F)F)c(-c2ccc(Br)cc2)c1NC(=O)c1cccnc1
IC50 [25]: > 100 µM (active)

Cc1cc(C(=O)N/N=C/c2ccc(O)c(O)c2O)c(C)n1-c1ccccc1
IC50 [26]: > 50 µM (not active)
IC50 [27]: > 50 µM (not active)
IC50 [28]: 41.9 µM (active)

Clc1ccc(-c2nnn(Cc3nc4ccccc4s3)n2)cc1
IC50 [29]: 13.4 µM (not active)
IC50 [30]: > 100 µM (inactive)
IC50 [31]: 15.1 µM (not active)
